Patent US5962469A, “Cyclic nitrones” (Hoechst Marion Roussel Inc., priority 1997, dated 1999)
pIC50: −log10 of the molar value.

Key:
[1] = Inhibition of lipid peroxidation (soybean phosphatidylcholine liposomes); assay type: biochemical; conditions: Fe2+-initiated, 37° C., 15 min time point, TBARS, read-out: LIPID OX (IC50)
Description: 1. Inhibition of lipid peroxidation
For determination of the ability to inhibit lipid peroxidation, liposomes were prepared from soybean phosphatidylcholine by ethanol injection. An aliquot of phosphatidylcholine was dried in a small glass vial under N2. The lipid was resolubilized in ethanol at a volume of 10 ml per ml of liposomes. Typically, 8 ml volumes of liposomes were prepared per tube and then all preparations were combined to provide a homogenous mixture for the assay. The ethanol containing the lipid was taken up in a Hamilton syringe and injected into the appropriate volume of 50 mM NaCl/10 mM Tris, pH 7.0 at 37° C. with mixing to achieve a final lipid concentration of 0.563 mM.
The liposomes were added to 25 ml beakers in a Dubnoff metabolic shaker at 37° C. To the liposomes were added the test compound (in ethanol or buffer), histidine-FeCl3 250:[…] final), FeCl2 ([…] final, prepared in N2 purged water) and sufficient buffer to achieve a final lipid concentration of 0.5 mM. Oxidations were initiated by the addition of Fe^2^+ and carried out under an air atmosphere with shaking. One ml aliquots were removed at 0,2,4,6,8,10,12 and 15 min and added to 2 ml of 0.67% thiobarbituric acid : 10% trichloroacetic acid (2:1) in 0.25 N HCl containing 0.05 ml of 2% BHT to terminate oxidation. Thomas, C. E., McLean, L. R., Parker, R. A., and Ohlweiler, D. F. (1992) Lipids 27, 543-550.
The samples were heated at 100° C. for 20 min in 13 x 100 mm borosilicate glass tubes covered with marbles to prevent evaporation. After cooling, the tubes were centrifuged at 3,000 rpm for 10 min and the absorbance of the resultant supernatant read at 532 nm-580 nm. Quantitation of thiobarbituric acid reactive substances (TBARS) was determined by comparison to a standard curve of malondialdehyde equivalents generated by acid catalyzed hydrolysis of 1,1,3,3-tetraethoxypropane. The IC50 was determined using the 15 min time point with the computer program GraphPad INPLOT 4. This program uses a nonlinear regression with sigmoidal curve on a semilogarithmic scale.

[2] = OH radical trapping (inhibition of the bleaching of p-NDA, primary assay); assay type: biochemical; conditions: for pIC50: IC50, Fenton chemistry (Fe2+/H2O2), pH 7.0
Description: 2. Assessment as .OH Traps
A. Inhibition of the bleaching of p-NDA
Cyclic nitrones were evaluated for .OH trapping activity by a variety of tests. The primary assay was dependent upon the ability of the compounds to inhibit the .OH-dependent bleaching of p-NDA. Bors, W., Michel, C., and Saran, M. (1979) J. Biochem. 95, 621-627. The p-NDA was prepared at 1 mM in 50 mM NaCl, pH 7.0. The hydroxyl radical was generated using Fenton chemistry (Fe^2+ /H2 O2). FeCl2 is dissolved in N2 purged, double distilled […] to a final concentration of 2.5 mM. H2 O2 was prepared from a 30% stock solution (8.8 M) at 1.25 mM in the buffer. Test compounds were solubilized in buffer or ethanol at a concentration of 1 M or 5 M, depending upon solubility.
Assay mixtures in glass cuvettes contained solutions of 0.02 ml of H2 O2, 0.02 ml of test compound, 0.10 ml of p-NDA and 50 mM NaCl, pH 7.0 to a final volume of 0.98 ml. The oxidation was initiated by the addition of 0.02 ml of Fe^2+ and the bleaching of p-NDA was monitored as the loss in absorbance at 440 nm for 100 sec. To generate concentration curves, serial dilutions of the test compounds were made such that a constant volume of 0.02 ml was added to the reaction mixture. Ethanol itself is an .OH trap, thus controls contained an equal volume of ethanol for any test compound requiring this vehicle. The IC50 values for the nitrones were determined by GraphPad InPlot 4 and represent the amount of spin trap required to inhibit the bleaching of p-NDA by 50%.

Sedation in rats = assay type: in vivo
[3] = Duration of in vivo activity of compound A; set-up: species or system rats; conditions: relative to the sedative effect
[4] = compared with PBN; cited from earlier work
[5] = compared with PBN; cited from earlier work; remark: listed apart in the source
Cerebellar Granule Cells [6] = experiment: Protection of cerebellar granule cells against Fe2+-induced oxidation (TBARS); assay type: cell-based; conditions: Rattus norvegicus, 0.75 h, read-out: TBARS IC50
Description: (§1) 3. Protection of cerebellar granule cells against oxidative damage
(§2) The cyclic nitrones were tested for their ability to protect primary cultures of cerebellar granule cells against oxidative injury induced by treatment with Fe^2+. Cerebellar granule cell cultures were prepared from 8 day old rats as previously described. […] Briefly, 8-10 cerebella were removed and placed in a Krebs-Ringer bicarbonate medium supplemented with BSA and MgSO4. Cerebella were finely chopped and digested with a trypsin/Krebs-Ringer solution. Cells were then dispersed by trituration in Krebs-Ringer containing DNase, MgSO4 and trypsin inhibitor followed by plating at a density of 1×10^6 cells/well in poly-l-lysine coated plate in MEM/10% fetal bovine serum/KCl/glutamine/gentamicin. Media was replaced at 24 hours and cytosine arabinoside added. Experiments were conducted with cells 8-10 days in vitro.
(§3) The nitrones were added in either Locke's solution or in 20% β-cyclodextrins and allowed to incorporate into the cells for 30 min. At this time 20 μl of a 5 mM stock solution of ferrous chloride was added for a final concentration of 100 μM. After 45 min the media was removed and added to 1.5 ml of TBA/TCA (2:1) with 25 μl of 2% BHT and TBARS determined as described above. The absorbance of the control cells (no iron) was subtracted from the iron treated cells and this value taken as the denominator to determine the concentration of nitrone required to inhibit oxidation by 50%.

Cerebellar Granule Cells [7] = experiment: Protection of cerebellar granule cells against Fe2+-induced damage (viability, MTT); assay type: cell-based; conditions: Rattus norvegicus, read-out: Viability IC50
Description: as §1, §2, §3
Fresh MEM media was added to the cells along with 100 μl of MTT. After 4 hrs, 1 ml of cold isopropanol/0.04 N HCl was added, the cells scraped, mixed well and transferred to 13×100 mm glass test tubes. The absorbance resulting from mitochondrial reduction of the MTT (570 nm minus 630 nm) was measured as an assessment of viability. The % cell death was determined by comparison to the absorbance of cells to which no iron was added.

[8] = Metabolites of A isolated from an in vivo experiment; conditions: relative to Metabolite 2
Description: Indeed, from the onset, a primary goal has been to find a potent antioxidant which lacks this side effect observed with compound A. In this regard, the following observations were of special interest. […] In order to investigate this possibility, the major metabolite C and a minor, possibly secondary, metabolite (Metabolite 2) were isolated from an in vivo experiment, purified by HPLC, and assigned the structures shown below (FIG. 3). [drawing 16]

Solubility = assay type: physicochemical; conditions: for water solubility: noted during work-up
[9] = test system: neuronal cell loss and neurologic deficits; conditions: stroke, gerbil model; cited from earlier work
[10] = ESR spectroscopy, gerbils; cited from earlier work
[11] = test system: endotoxin associated mortality; conditions: rats; cited from earlier work
ischemia-induced damage = conditions: vitamin E supplementation; cited from earlier work
loss of cell viability = conditions: prior administration for vitamin E; cited from earlier work
[12] = Fe2+-induced damage, 100 μM ferrous chloride, 45 min
[13] = Fe2+-induced damage, MTT reduction

Row | pIC50 [1] | Structure (SMILES) | pIC50 (Cerebellar Granule Cells [6]; [12]) | pIC50 (Cerebellar Granule Cells [7]; [13]) | further results
1 | 2.78 | CC1(C)Cc2ccccc2C=[N+]1[O-] [A, 3,4-dihydro-3,3-dimethylisoquinoline N-oxide] | – | – | pIC50 [2]: 2.55; sedation (Sedation in rats; high doses in rats): causes sedation when administered in high doses in rats; time course of sedative effect (Sedation in rats; rats): peaks and declines rapidly; duration of in vivo activity [3]: persists for a considerably longer period of time; inhibition of lipid oxidation relative to PBN [4]: more potent inhibitors of lipid oxidation; hydroxyl radical trapping relative to PBN [5]: better hydroxyl radical traps
2 | – | [O-][N+]1=Cc2ccccc2CC12CCCCC2 [B, spiro [cyclohexane-1,3']3,4-dihydroisoquinoline N-oxide, reference compound] | – | – | inhibition of lipid oxidation relative to PBN [4]: more potent inhibitors of lipid oxidation; hydroxyl radical trapping relative to PBN [5]: better hydroxyl radical traps
3 | – | CC1(C)C(O)c2ccccc2C=[N+]1[O-] (centres unmarked) [C, 3,3-Dimethyl-3,4-dihydroisoquinolin-4-ol, N-oxide] | 2.72 | 2.81 | abundance of metabolite in vivo [8]: much more abundant in vivo than Metabolite 2; water solubility (Solubility): relatively high water solubility
4 | 4.00 | CC1(C)Cc2c(ccc3ccccc23)C=[N+]1[O-] [Compound 9, 2,2-Dimethyl-1,2-dihydrobenzo[f]isoquinoline N-oxide] | – | – | solubility (Solubility; reason for OH radical trapping not measured): low solubility
5 | 4.16 | CC1(C)Cc2ccc3ccccc3c2C=[N+]1[O-] [Compound 10, 3,3-Dimethyl-3,4-dihydrobenzo[h]isoquinoline N-oxide] | – | – | –
6 | 2.76 | CC1(C)Cc2ccsc2C=[N+]1[O-] [Compound 13, 5,5-Dimethyl-4,5-dihydrothieno[2,3-c]pyridine N-oxide] | – | – | pIC50 [2]: 2.36
7 | – | Cc1cc2c(c(C)c1O)CC(C)(C)[N+]([O-])=C2 [Compound 15, 3,3,5,7-Tetramethyl-3,4-dihydroisoquinolin-6-ol N-oxide] | 3.66 | 3.72 | –
8 | – | Cc1cc2c(c(C)c1O)CC(C)(C)N=C2 [Compound 38, 3,3,5,7-Tetramethyl-3,4-dihydroisoquinolin-6-ol] | – | – | water solubility (Solubility): high water solubility
9 | 2.80 | CC1(C)Cc2sccc2C=[N+]1[O-] [Compound 48, 6,6-Dimethyl-6,7-dihydrothieno[3,2-c]pyridine N-oxide] | – | – | pIC50 [2]: 1.84
10 | 2.97 | CC1(C)Cc2ccoc2C=[N+]1[O-] [Compound 53, 5,5-Dimethyl-4,5-dihydrofuro[2,3-c]pyridine N-oxide] | – | – | OH RADICAL TRAPPING (effect) ([2]; at 20 mM): no effect
11 | – | CC(=O)OC1c2ccccc2C=[N+]([O-])C1(C)C (centres unmarked) [Compound 76, 4-Acetoxy-3,3-dimethyl-3,4-dihydroisoquinoline, N-oxide] | 3.08 | 3.06 | –
12 | – | CC1(C)C(=O)c2ccccc2C=[N+]1[O-] [Compound 77, 3,3-Dimethyl-3H-isoquinolin-4-one, N-oxide] | 3.08 | 3.41 | –
13 | – | [O-][N+]1=Cc2ccccc2C(O)C12CCCCC2 (centres unmarked) [D, 3,4-dihydroisoquinolin-4-ol-3-spirocyclohexane, N-oxide] | 3.28 | 3.23 | –
14 | – | O=C1c2ccccc2C=[N+]([O-])C12CCCCC2 [E, 3H-isoquinolin-4-one-3-spirocyclohexane, N-oxide] | 4.43 | 4.41 | –
15 | – | [O-][N+]1=Cc2ccccc2C(O)C12CCCC2 (centres unmarked) [F, 3,4-dihydroisoquinolin-4-ol-3-spirocyclopentane, N-oxide] | 3.11 | 3.09 | –
16 | – | O=C1c2ccccc2C=[N+]([O-])C12CCCC2 [G, 3H-isoquinolin-4-one-3-spirocyclopentane, N-oxide] | 3.99 | 3.98 | –
17 | – | CC(C)(C)[N+]([O-])=Cc1ccccc1 [PBN, alpha-phenyl-tert-butyl nitrone] | – | – | pIC50 (Cerebellar Granule Cells [6]): 2.59; pIC50 (Cerebellar Granule Cells [7]): 2.59; effect on neuronal cell loss and neurologic deficits [9]: can significantly ameliorate neuronal cell loss and neurologic deficits; trapping of lipid-derived radicals in cortical tissue [10]: trap lipid-derived radicals in cortical tissue; reduction of endotoxin associated mortality [11]: reduce endotoxin associated mortality in rats
18 | – | Cc1c(C)c2c(c(C)c1O)CCC(C)(CCCC(C)CCCC(C)CCCC(C)C)O2 (stereo not drawn) [vitamin E, α-tocopherol] | – | – | protective effect against ischemia-induced damage (ischemia-induced damage): some protective effect; protection against loss of cell viability (loss of cell viability): partial protection
